Data reported in patent US9439845B2, “Glycyrrhetinimidyl hydroxyproline alkyl esters and protected derivatives thereof” (REVLON CONSUMER PRODUCTS CORPORATION, priority 2013, dated 2016).

Tests used:
Assay type in all cases: cell-based
[1] = test system: extracellular collagen III in normal human dermal fibroblasts (NHDF); experiment: Extracellular Collagen III expression in fibroblasts (fiber deposition); details: for % Control (extracellular Collagen III) / % Stimulation (extracellular Collagen III) / Mean Collagen III (fibers): 72 hours
Description: (§1) It is believed that the glycyrrhetinimidyl hydroxyproline alkyl esters of the present invention are useful for promoting collagen production in human skin. In an exemplary test, normal human dermal fibroblasts (NHDF) were cultured in culture medium for 24 hours. The medium was then replaced with culture medium containing or not (control) the test compound or the reference compound (Vitamin C) or the reference mix (Vitamin C and TGF-β). The cells were then incubated for 72 hours. After incubation, the culture medium was then collected and the cells were washed and fixed. Cells were then labeled with a primary antibody (anti-collagen I or anti-collagen III). […] An INCell Analyzer 1000 was used to take images of each well. The labeling was quantified by the measurement of the fluorescence intensity or fluorescence area normalized to the total number of cells.
(§2) A collagen release promoter, such as Vitamin C, could be used to release the intracellular collagen into the extracellular matrix. Note that in Tables 3 and 4 below, the apparent inhibition of glycyrrhetinimidyl hydroxyproline methyl ester on extracellular collagen fiber deposition is due to an artifact effect.

[2] = test system: collagen III in normal human dermal fibroblasts (NHDF); experiment: Total Collagen III expression in fibroblasts (immunofluorescence, INCell Analyzer 1000); details: for % Control (total Collagen III) / % Stimulation (total Collagen III) / Mean Collagen III (AU): 72 hours
Description: as §1

[3] = test system: collagen I in normal human dermal fibroblasts (NHDF); experiment: Total Collagen I expression in fibroblasts (immunofluorescence, INCell Analyzer 1000); details: for % Control (total Collagen I) / % Stimulation (total Collagen I) / Mean Collagen I (AU): 72 hours; for Mean Collagen I (AU): AU = fluorescence intensity/number of cells
Description: as §1

[4] = test system: extracellular collagen I in normal human dermal fibroblasts (NHDF); experiment: Extracellular Collagen I expression in fibroblasts (fiber deposition); details: for % Control (extracellular Collagen I) / % Stimulation (extracellular Collagen I) / Mean Collagen I (fibers): 72 hours
Description: as §1, §2

[5] = 30 μM, apparent inhibition said to be an artifact
[6] = qualitative analysis of the images
[7] = 10 μM, apparent inhibition said to be an artifact

glycyrrhetinimidyl hydroxyproline methyl ester
% Control (extracellular Collagen III) ([1]; 3.3 μM): 105% | % Stimulation (extracellular Collagen III) ([1]; 3.3 μM): 5% | Mean Collagen III (fibers) ([1]; 3.3 μM): 34 fibers | % Control (extracellular Collagen III) ([1]; 10 μM): 107% | % Stimulation (extracellular Collagen III) ([1]; 10 μM): 7% | Mean Collagen III (fibers) ([1]; 10 μM): 34 fibers | % Control (extracellular Collagen III) [1, 5]: 78% | % Stimulation (extracellular Collagen III) [1, 5]: −22% | Mean Collagen III (fibers) [1, 5]: 25 fibers | effect on collagen III extracellular fiber deposition [1, 6]: no significant effect | extracellular release of collagen III ([1]; text summary of Table 4): no significant increase | % Control (total Collagen III) ([2]; 3.3 μM): 105% | % Stimulation (total Collagen III) ([2]; 3.3 μM): 5% | Mean Collagen III (AU) ([2]; 3.3 μM): 177399 AU | % Control (total Collagen III) ([2]; 10 μM): 118% | % Stimulation (total Collagen III) ([2]; 10 μM): 18% | Mean Collagen III (AU) ([2]; 10 μM): 199984 AU | % Control (total Collagen III) ([2]; 30 μM): 142% | % Stimulation (total Collagen III) ([2]; 30 μM): 42% | Mean Collagen III (AU) ([2]; 30 μM): 240374 AU | increase of the NHDF's neosynthesis of collagen III ([2]; maximum over tested concentrations (text summary of Table 2)): up to 42% | % Control (total Collagen I) ([3]; 3.3 μM): 102% | % Stimulation (total Collagen I) ([3]; 3.3 μM): 2% | Mean Collagen I (AU) ([3]; 3.3 μM): 222721 AU | % Control (total Collagen I) ([3]; 10 μM): 97% | % Stimulation (total Collagen I) ([3]; 10 μM): −3% | Mean Collagen I (AU) ([3]; 10 μM): 210888 AU | % Control (total Collagen I) ([3]; 30 μM): 126% | % Stimulation (total Collagen I) ([3]; 30 μM): 26% | Mean Collagen I (AU) ([3]; 30 μM): 274297 AU | increase of the NHDF's neosynthesis of collagen I ([3]; maximum over tested concentrations (text summary of Table 1)): up to 26% | % Control (extracellular Collagen I) ([4]; 3.3 μM): 102% | % Stimulation (extracellular Collagen I) ([4]; 3.3 μM): 2% | Mean Collagen I (fibers) ([4]; 3.3 μM): 63 fibers | % Control (extracellular Collagen I) [4, 7]: 79% | % Stimulation (extracellular Collagen I) [4, 7]: −21% | Mean Collagen I (fibers) [4, 7]: 48 fibers | % Control (extracellular Collagen I) [4, 5]: 70% | % Stimulation (extracellular Collagen I) [4, 5]: −30% | Mean Collagen I (fibers) [4, 5]: 43 fibers | effect on collagen I extracellular fiber deposition [4, 6]: no significant effect | extracellular release of collagen I ([4]; summary of Table 3): no significant increase
